The text below walks through data of patent publication US8461183B2, “PPAR agonist compounds, preparation and uses” (Genfit, priority 2008, dated 2013).

pEC50: −log10 of the molar value.

One may read the pEC50 as the EC50 on a negative log10 scale, so that one unit is a factor of ten.

Common to all, as to assay type: cell-based
The target of one experiment is T1, hPPARγ (Homo sapiens, UniProt P37231).
T1 construct: corresponding to the DEF domains (structural elements of the promoter of the PPARs: D=hinge, EF=ligand fixation domain and AF2 fixation site); expressed in transfected cells; host or cells: COS-7 (monkey kidney fibroblasts)
T1 sequence (P37231 238-503 limits assumed): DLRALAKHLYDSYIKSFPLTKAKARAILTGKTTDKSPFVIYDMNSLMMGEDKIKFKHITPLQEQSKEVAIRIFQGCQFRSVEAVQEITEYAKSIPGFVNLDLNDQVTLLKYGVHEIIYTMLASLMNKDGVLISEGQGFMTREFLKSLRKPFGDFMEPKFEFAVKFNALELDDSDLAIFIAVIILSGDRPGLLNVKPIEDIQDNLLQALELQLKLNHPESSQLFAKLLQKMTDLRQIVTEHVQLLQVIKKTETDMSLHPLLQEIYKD
The experiment in a line: Gal4-hPPARγ chimera transactivation (luciferase) in COS-7 cells. As to conditions: 24 hours; for pEC50: luciferase, read-out: PPARγ EC50; for Emax: read-out: PPARγ TOP % (maximum activation). Here is the method:
(§1) Activation of PPARs is evaluated in vitro on a line of monkey kidney fibroblasts (COS-7) by measuring the transcriptional activity of chimeras consisting of the DNA binding domain of Gal4 transcription factor of yeast and of the ligand binding domain of the various PPARs of human origin (hPPAR).
(§2) The COS-7 cells are from ATCC and are cultivated in DMEM medium supplemented with 10% (vol/vol) of fetal calf serum, 1% of penicillin/streptomycin (Biochrom, AG), 1% of amino acids (Gibco) and 1% of sodium pyruvate (Gibco). The cells are incubated at 37° C. in a humid atmosphere containing 5% CO2.
(§3) The plasmids Gal4(RE)_TkpGL3, pGal4-hPPARα, pGal4-hPPARγ, pGal4-hPPARδ and pGal4-φ are described in the literature (Raspe E et al., 1999). The constructs pGal4-hPPARα, pGal4-hPPARγ and pGal4-hPPARδ were obtained by cloning, into the pGal4-φ vector, DNA fragments amplified by PCR corresponding to the DEF domains (structural elements of the promoter of the PPARs: D=hinge, EF=ligand fixation domain and AF2 fixation site) of the human nuclear receptors PPAα, PPARγ and PPARδ.
(§4) The adherent COS-7 cells are transfected with 40 μg of DNA per 225 cm^2 flask, with a pGal4-hPPAR/Gal4(RE)_TkpGL3 ratio of 1/10, in the presence of 10% of fetal calf serum. The cells are then detached and seeded in the absence of serum in 384-well plates (2×10^4 cells/well) then incubated for 4 hours at 37° C. The compounds are then diluted in a 96-well plate and then transferred to the 384-well plate. Activation with the test compounds is effected for a further 24 hours at 37° C. in the presence of 1% of synthetic serum Ultroser™ (Biosepra). These last 2 stages are automated by means of a Genesis Freedom 200™ station (Tecan). At the end of the experiment, the cells are lysed and the luciferase activity is determined using the Steady-Lite™ HTS (Perkin Elmer) according to the supplier's recommendations.
(§5) The test data are summarized in Table 8-1 below, which presents, for each compound, the values of maximum activation (TOP %) and the EC50 values measured for each isoform of PPAR.

The next experiment concerns the target T2, hPPARα (Homo sapiens, UniProt Q07869).
T2 construct: corresponding to the DEF domains (structural elements of the promoter of the PPARs: D=hinge, EF=ligand fixation domain and AF2 fixation site); expressed in transfected cells; host or cells: COS-7 (monkey kidney fibroblasts)
T2 sequence (Q07869 239-466 limits assumed): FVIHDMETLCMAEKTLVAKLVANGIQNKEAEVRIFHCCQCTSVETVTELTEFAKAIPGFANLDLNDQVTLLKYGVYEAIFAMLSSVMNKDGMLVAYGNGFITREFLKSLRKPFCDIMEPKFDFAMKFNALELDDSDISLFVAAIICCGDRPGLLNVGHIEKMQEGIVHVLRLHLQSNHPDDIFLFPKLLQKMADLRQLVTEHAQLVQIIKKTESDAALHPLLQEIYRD
The experiment in a line: Gal4-hPPARα chimera transactivation (luciferase) in COS-7 cells. The following applies: COS-7 cells, Gal4-hPPARα, 24 hours; for pEC50: luciferase, read-out: PPARα EC50; for Emax: read-out: PPARα TOP % (maximum activation). Here is the method: as §1, §2, §3, §4
The test data are summarized in Table 8-1 below, which presents, for each compound, the values of maximum activation (TOP %) and the EC50 values measured for each isoform of PPAR. The values of maximum activation are expressed in percentages relative to the maximum activations obtained with reference agonists: fenofibric acid for PPARα, rosiglitazone for PPARγ and 2-methyl-4-((4-methyl-2-(4-trifluoromethylphenyl)-1,3-thiazol-5-yl)-methylsulfanyl)phenoxyacetic acid (also called GW501516) for PPARδ.

The target in the next experiment is T3, hPPARδ (Homo sapiens, UniProt Q03181).
T3 construct: corresponding to the DEF domains (structural elements of the promoter of the PPARs: D=hinge, EF=ligand fixation domain and AF2 fixation site); expressed in transfected cells; host or cells: COS-7 (monkey kidney fibroblasts)
T3 sequence (Q03181 211-439 limits assumed): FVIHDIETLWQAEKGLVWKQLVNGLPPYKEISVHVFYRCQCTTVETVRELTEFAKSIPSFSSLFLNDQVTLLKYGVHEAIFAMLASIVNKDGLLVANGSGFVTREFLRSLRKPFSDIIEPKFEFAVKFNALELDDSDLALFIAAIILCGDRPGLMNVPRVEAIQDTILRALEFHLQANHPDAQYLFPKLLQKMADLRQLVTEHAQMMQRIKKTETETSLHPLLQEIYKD
The experiment in a line: Gal4-hPPARδ chimera transactivation (luciferase) in COS-7 cells. The following applies: COS-7 cells, Gal4-hPPARδ, 24 hours; for pEC50: luciferase, read-out: PPARδ EC50; for Emax: read-out: PPARδ TOP % (maximum activation). The protocol:
as §1, §2, §3, §4, §5

Where [1] appears, read: relative to maximum activation obtained with rosiglitazone.
[2] abbreviates: relative to maximum activation obtained with fenofibric acid.
The mark [3] stands for this setting: relative to maximum activation obtained with GW501516.

Take `COc1nc(-c2ccccc2)c(-c2ccccc2)cc1CNc1ccc(SCC(=O)O)cc1` [Cpd 28, 2-(4-(((2-methoxy-5,6-diphenylpyridin-3-yl)methyl)amino)phenylthio)ethanoic acid]: the negative logarithm of the EC50 (pEC50) on hPPARγ is 4.95; on hPPARα, 5.76; on hPPARδ, 4.60. Further, the Emax on hPPARγ (setting [1]) was determined as 45%; at hPPARα (setting [2]), 55.4%; on hPPARδ (setting [3]) it was 49.1%.

Take `COc1cc(CCC(=O)O)ccc1NCc1ccc(-c2ccccc2)nc1OC` [Cpd 44, 3-(3-methoxy-4-(((2-methoxy-6-phenylpyridin-3-yl)methyl)amino)-phenyl)-propanoic acid]: the pEC50 is 5.58 on hPPARγ, 6.03 on hPPARα and 5.62 on hPPARδ. Further, the results for the Emax on hPPARγ (setting [1]), on hPPARα (setting [2]) and at hPPARδ (setting [3]) were 72.2%, 55.5% and 80.6%, respectively.

For the molecule `O=C(O)COc1ccc(OCc2ccc(-c3ccccc3)nc2OC2CCCCC2)cc1` [Cpd 18, 2-(4-((2-cyclohexyloxy-6-phenylpyridin-3-yl)methoxy)phenoxy)ethanoic acid], the pEC50 on hPPARγ was 4.85; at hPPARα, 4.97; on hPPARδ, 5.40. The Emax on hPPARγ (setting [1]) turned out to be 26.1%; at hPPARα (setting [2]), 35.3%; on hPPARδ (setting [3]), 97.1%.

With `CCC(Nc1ccc(CCC(=O)O)cc1)c1ccc(-c2ccccc2)nc1OC` (stereo not drawn) [Cpd 34, 3-(4-(1-((2-methoxy-6-phenylpyridin-3-yl)propyl)amino)phenyl)propanoic acid], the values for the negative-log EC50 (pEC50) at hPPARγ, on hPPARα and at hPPARδ were 5.63, 5.85 and 6.28, respectively. In addition, the Emax at hPPARγ (setting [1]) came out at 80.4%; at hPPARα (setting [2]) it was 67.6%; on hPPARδ (setting [3]), 108%.

“3-(4-(((2-methoxy-6-furylpyridin-3-yl)methyl)amino)phenyl)propanoic acid [Cpd 31]”: the negative-log EC50 (pEC50) at hPPARγ was 5.47; on hPPARα it was 5.60; at hPPARδ, 4.79. Also, on hPPARγ (setting [1]), the “PPARγ TOP % (maximum activation)” value turned out to be 62.35%. Besides, at hPPARα (setting [2]), the “PPARα TOP % (maximum activation)” value came out at 49.52%. Also, at hPPARδ (setting [3]), the “PPARδ TOP % (maximum activation)” value turned out to be 86.72%.

As to `COc1nc(-c2ccccc2)ccc1CNc1ccc(SC(C(=O)O)c2ccccc2)cc1` (stereo not drawn) [Cpd 32, 2-(4-(((2-methoxy-6-phenylpyridin-3-yl)methyl)amino)phenylthio)-2-phenyl-acid], the results for the pEC50 at hPPARγ, on hPPARα and at hPPARδ were 5.60, 5.83 and 4.64, respectively. Also, the Emax at hPPARγ (setting [1]) was 66.6%; on hPPARα (setting [2]), 70.4%; on hPPARδ (setting [3]) it was 3.59%.

Consider `COc1ncc(-c2ccccc2)cc1CNc1ccc(SCC(=O)O)cc1` [Cpd 26, 2-(4-(((2-methoxy-5-phenylpyridin-3-yl)methyl)amino)phenylthio)ethanoic acid], for which the pEC50 was 4.36 on hPPARγ, 4.68 on hPPARα and 4.51 at hPPARδ. The results for the Emax on hPPARγ (setting [1]), on hPPARα (setting [2]) and on hPPARδ (setting [3]) were 208%, 67% and 138%, respectively.

`COc1nc(-c2ccccc2)ccc1CNc1ccc(C(CC(=O)O)c2ccccc2)cc1` (stereo not drawn) [Cpd 42, 3-(4-((2(-methoxy-6-phenylpyridin-3-yl)methyl)amino)phenyl)-3-phenyl-propanoic acid]: the pEC50 at hPPARγ was 5.36; at hPPARα, 5.25; on hPPARδ, 5.52. Also, the Emax worked out at 65.8% at hPPARγ (setting [1]), 16.5% at hPPARα (setting [2]) and 86.5% on hPPARδ (setting [3]).

Take `CCOc1nc(-c2ccccc2)ccc1CNc1ccc(CCC(=O)O)cc1` [Cpd 51, 3-(4-(((2-ethoxy-6-phenylpyridin-3-yl)methyl)amino)phenyl)propanoic acid]: the figures for the pEC50 at hPPARγ, at hPPARα and on hPPARδ were 5.65, 5.89 and 5.71, respectively. Besides, the Emax on hPPARγ (setting [1]) worked out at 70.9%; at hPPARα (setting [2]), 50.5%; at hPPARδ (setting [3]), 93.1%.

Consider `COc1nc(-c2ccc(C(F)(F)F)cc2)ccc1CNc1ccc(SCC(=O)O)cc1` [Cpd 23, 2-(4-(((2-methoxy-6-(4-(trifluoromethyl)phenyl)pyridin-3-yl)methyl)amino)-phenylthio)ethanoic acid], for which the pEC50 at hPPARγ was 5.55; at hPPARα it was 7.36; at hPPARδ, 6.30. Further, the figures for the Emax at hPPARγ (setting [1]), at hPPARα (setting [2]) and on hPPARδ (setting [3]) were 75.6%, 65.3% and 85.4%, respectively.

`O=C(O)COc1ccc(OCc2ccc(-c3ccccc3)nc2N2CCCCC2)cc1` [Cpd 20, 2-(4-((6-phenyl-2-(piperidin-1-yl)pyridin-3-yl)methoxy)phenoxy)ethanoic acid]: the pEC50 is 4.52 at hPPARγ, 4.84 at hPPARα and 5.28 on hPPARδ. The Emax was found to be 43% on hPPARγ (setting [1]), 34.2% at hPPARα (setting [2]) and 87.7% at hPPARδ (setting [3]).

Turning to `CC(Oc1ccc(NCc2ccc(-c3ccccc3)nc2OC(C)(C)C)cc1)C(=O)O` (stereo not drawn) [Cpd 10, 2-(4-(((2-tert-butyloxy-6-phenylpyridin-3-yl)methyl)amino)phenoxy)propanoic acid], the pEC50 is 4.98 on hPPARγ, 5.22 at hPPARα and 6.12 on hPPARδ. The Emax on hPPARγ (setting [1]) is 25.6%; on hPPARα (setting [2]), 53.2%; on hPPARδ (setting [3]), 96.7%.

`CCSc1nc(-c2ccccc2)ccc1CNc1ccc(CCC(=O)O)cc1` [Cpd 38, 3-(4-(((2-(ethylthio)-6-phenylpyridin-3-yl)methyl)amino)phenyl)propanoic acid]: the negative logarithm of the EC50 (pEC50) on hPPARγ is 5.12; on hPPARα it was 4.97; on hPPARδ, 5.17. Besides, the Emax is 45.4% at hPPARγ (setting [1]), 36.2% on hPPARα (setting [2]) and 64.5% on hPPARδ (setting [3]).

Take `COc1nc(-c2ccccc2)ccc1CNc1ccc(C(C)CC(=O)O)cc1` (stereo not drawn) [Cpd 45, 3-(4-(((2-methoxy-6-phenylpyridin-3-yl)methyl)amino)phenyl)butanoic acid]: the negative logarithm of the EC50 (pEC50) was 5.62 on hPPARγ, 5.19 at hPPARα and 5.47 at hPPARδ. Further, the Emax on hPPARγ (setting [1]) turned out to be 79.4%; on hPPARα (setting [2]), 43.2%; on hPPARδ (setting [3]), 97.3%.
